# Legend:
# [1] = tested on: induced platelet aggregation; assay: collagen-induced platelet aggregation in arthritic rats; assay type: in vivo, rat; details: oral 21 days
# Description: (§1) The hemorheological, antithrombotic, antiaggregatory and antiinflammatory effects of the combinations according to the invention were investigated after oral administration for 21 days in the pathological model of adjuvant arthritis (induced with Mycobacterium butyricum) is the rat by the method of Clincal Hemorheology 3 (1983) 469-480, and were compared with those of the appropriate individual substances. Blood was taken from the thoracic aorta 1 hour after the last administration of substance. All the details of the determination of the hemorheological effect were as described in Clinical Hemorheology 4 (1984) 263-273. The erythocyte deformability was quantitatively determined in a filtrometer (Myrenne MF 4, Roetgen, Germany) by evaluation of the initial gradient of the flow curve.
# The measurements of platelet aggregation were carried out as described above in detail. However, instead of arachidonic acid 0.04 mg of collagen was used to induce platelet aggregation in 1 ml of platelet-rich plasma (PA II aggregometer from Myrenne, Roetgen).
# [2] = tested on: adjuvant arthritis (Mycobacterium butyricum) in the rat; assay: antiinflammatory effect in adjuvant arthritis (paw edema, necrosis index); assay type: in vivo
# Description: as §1
# The antiflammatory effect was quantitatively measured, as quoted above, using the volume of the edema of the paw and using the standard necrosis index.
# [3] = tested on: tendency to thrombosis in arthritic rat; assay: laser-induced tendency to thrombosis in arthritic rats; assay type: in vivo; details: oral 21 days
# Description: as §1
# The antithrombotic effect was measured using the laser model as described above.
# cyclooxygenase = details: cited from earlier work
# [4] = tested on: laser-induced thrombosis in the arterioles and venules of the rat mesentery; assay: laser-induced thrombosis in arterioles of the rat mesentery; assay type: in vivo, rat (female Sprague-Dawley); details: for Changes from controls, % / Changes from controls, absolute / Number of shots: single substance
# Description: The evaluation was carried out by analysis by vital microscopy (Nature, 218 (1968) 887 and Haemostasis 13 (1983) 61 and IRCS Med. Sci. 12 (1984) 91).
# The test substances were administered in 0.9% sodium chloride solution (which contained 1% carboxymethylcellulose (Serva, Heidelberg)) either orally, intraperitoneally or intravenously. Control animals were treated in the corresponding manner but without the test substances. The experimental animals used were male or female Sprague-Dawley or Wistar rats.
# The animals which were to be investigated underwent s.c. premedication with 0.1 mg of atropine sulfate in solution and were anesthetized with 100 mg of ketamine hydrochloride and 4 mg of xylazine per kg of body weight i.p. The investigation made use of arterioles and venules of the mesentery, which was coated with degassed liquid paraffin, having a diameter of about 13 μm. The beam of a 4 W argon laser (supplied by Spectra Physics, Darmstadt) was introduced coaxially, by means of a beam adaptation and adjustment system (supplied by BTG, Munich), into the inverted optical path of a microscope (ICM 405, LD-Epipland 40/0.60; supplied by Zeiss, Oberkochen). The wavelength used was 514.5 nm, with an energy above the objective of 30.5 mW. The exposure time per single shot was 1/15 sec. All the measuring operations were recorded by video camera (Trinicon tube, Sony, Cologne) and stored in a recorder (Sony, U-matic 3/4"). The test substances were administered in various doses to the experimental animals, orally one hour, and on i.v. administration 10 min., before the start of the experiment, control animals receiving the same amount of placebo.
# The number of shots needed to induce a defined thrombus is counted.
# The results of the experiment were subjected to statistical analysis using the .chi.^2 test (L. Cavalli-Sforza, Biometrie (Biostatistics), Stuttgart, 1969, pages 49 et seq.). […]
# [5] = tested on: mucosa of the glandular stomach; assay: test of gastric tolerance (ulcerogenic effect); assay type: in vivo, rat (male Sprague-Dawley); details: for Number of animals with ulcers: 10 animals
# Description: 24 hours after the last medication, the stomach was cut open along the lesser curvature, cleaned under running water, and inspected for mucosal lesions. All lesions visible on macroscopic inspection of the mucosa of the glandular stomach were regarded as ulcers.
# human blood platelets = details: cited from earlier work
# [6] = tested on: erythrocyte filterability; assay: erythrocyte filterability in adjuvant arthritis rats; assay type: in vivo, rat; details: oral 21 days
# Description: as §1
# vascular cyclooxygenase = details: cited from earlier work
# [7] = customary doses; cited from earlier work
# rat aortas = details: treatment of the rats with acetylsalicylic acid; cited from earlier work
# [8] = Table 1b, 1 mg/kg acetylsalicylic acid without pentoxifylline
structure (smiles),measurement,setting,value
"CC(=O)Oc1ccccc1C(=O)O [Acetylsalicylic acid, O-acetylsalicylic acid]",induced platelet aggregation,"[1]; 10 mg, untreated arthritic = 100%, healthy 0%",62%
same,induced platelet aggregation,[1]; 180 mg,35%
same,"Percentage improvement, necrosis index",[2]; 10 mg,8%
same,"Percentage improvement, volume of paw edema, left paw",[2]; 10 mg,2%
same,"Percentage improvement, volume of paw edema, right paw",[2]; 10 mg,3%
same,"Percentage improvement, necrosis index",[2]; 180 mg,28%
same,"Percentage improvement, volume of paw edema, left paw",[2]; 180 mg,28%
same,"Percentage improvement, volume of paw edema, right paw",[2]; 180 mg,26%
same,tendency to thrombosis (number of shots),"[3]; 10 mg, healthy = 100%, untreated arthritic 46%",47%
same,tendency to thrombosis (number of shots),[3]; 180 mg,91%
same,cyclooxygenase localized in the blood platelets,cyclooxygenase,inhibits the enzyme cyclooxygenase
same,"Changes from controls, %",[4]; 1 mg/kg oral,-13%
same,"Changes from controls, absolute",[4]; 1 mg/kg oral,"-0,35"
same,Number of shots,[4]; 1 mg/kg oral,"1,88"
same,"Changes from controls, %",[4]; 5 mg/kg oral,-18%
same,"Changes from controls, absolute",[4]; 5 mg/kg oral,"-0,38"
same,Number of shots,[4]; 5 mg/kg oral,"1,79"
same,"Changes from controls, %",[4]; 10 mg/kg oral,35%
same,"Changes from controls, absolute",[4]; 10 mg/kg oral,"0,75"
same,Number of shots,[4]; 10 mg/kg oral,"2,92"
same,"Changes from controls, %",[4]; 30 mg/kg oral,48%
same,"Changes from controls, absolute",[4]; 30 mg/kg oral,"1,04"
same,Number of shots,[4]; 30 mg/kg oral,"3,21"
same,% change from controls,[4]; [8],-13%
same,-x (number of shots),[4]; [8],"1,90"
same,effect in laser-induced thrombosis,[4]; oral dose 10 mg/kg,significant effect
same,effect in laser-induced thrombosis,[4]; single oral dose 5 mg/kg,not significant
same,Number of animals with ulcers,[5]; acetylsalicylic acid 25 mg/kg oral,5
same,Number of animals with ulcers,[5]; acetylsalicylic acid 50 mg/kg oral,7
same,Number of animals with ulcers,[5]; acetylsalicylic acid 100 mg/kg oral,9
same,Number of animals with ulcers,"[5]; acetylsalicylic acid 1,25 mg/kg oral",1
same,Number of animals with ulcers,"[5]; acetylsalicylic acid 12,50 mg/kg oral",2
same,gastric ulcerogenicity,[5]; acetylsalicylic acid after pretreatment with pentoxifylline,unaffected by pretreatment with pentoxifylline
same,aggregation of human blood platelets,human blood platelets,inhibitor of the aggregation
same,erythrocyte filterability,"[6]; 10 mg, healthy = 100%, untreated arthritic 59%",63%
same,erythrocyte filterability,[6]; 180 mg,68%
same,erythrocyte filterability in arthritic rats (in words),[6],can be increased again
same,inhibition of vascular cyclooxygenase,vascular cyclooxygenase,found only at higher doses
same,undesired side effects,[7],"asthma, allergic urticaria, analgesic nephropathy and peptic ulcers"
same,release of the substance having antiaggregatory activity stimulated by pentoxifylline,rat aortas,can be suppressed
